Assays:
Assay in all cases: radiometric filter-binding kinase assay
AURKB (human) = AURKB (human) (UniProt Q96GD4)
BRSK2 (human) = BRSK2 (human) (UniProt Q8IWQ3)
CAMKK2 (human) = CAMKK2 (human) (UniProt Q96RR4)
CHEK1 (human) = CHEK1 (human) (UniProt O14757)
CSNK2A1 (human) = CSNK2A1 (human) (UniProt P68400)
CaMK1 (human) = CaMK1 (human) (UniProt Q14012)
DAPK1 (human) = DAPK1 (human) (UniProt P53355)
DYRK1A (human) = DYRK1A (human) (UniProt Q13627)
DYRK3 (human) = DYRK3 (human) (UniProt O43781)
EPHB2 (human) = EPHB2 (human) (UniProt P29323)
FGFR1 (human) = FGFR1 (human) (UniProt P11362)
GCK (human) = GCK (human) (UniProt Q12851)
HIPK1 (human) = HIPK1 (human) (UniProt Q86Z02)
HIPK2 (human) = HIPK2 (human) (UniProt Q9H2X6); conditions: compound 10.0 µM
IGF1R (human) = IGF1R (human) (UniProt P08069)
JAK2 JH1 JH2 (human) = JAK2 JH1 JH2 (human) (UniProt O60674)
LCK (mouse) = conditions: accession and sequence are those of the human protein
MAPK10 (human) = MAPK10 (human) (UniProt P53779)
MAPK11 (human) = MAPK11 (human) (UniProt Q15759)
MAPK13 (human) = MAPK13 (human) (UniProt O15264)
MAPK8 (human) = MAPK8 (human) (UniProt P45983)
MAPKAPK5 (human) = MAPKAPK5 (human) (UniProt Q8IW41)
MARK3 (human) = MARK3 (human) (UniProt P27448)
MINK1 (human) = MINK1 (human) (UniProt Q8N4C8)
MKNK1 (human) = MKNK1 (human) (UniProt Q9BUB5)
[1] = tested on: PAK2 (human), Q13177 [T402E]
PHKG1 (human) = PHKG1 (human) (UniProt Q16816)
PIM3 (human) = PIM3 (human) (UniProt Q86V86)
ROCK2 (rat) = conditions: accession and sequence are those of the human protein
[2] = tested on: SGK1 (human), O00141 [S422D]
SRPK1 (human) = SRPK1 (human) (UniProt Q96SB4)
STK3 (human) = STK3 (human) (UniProt Q13188)
TAOK1 (human) = TAOK1 (human) (UniProt Q7L7X3)
TBK1 (human) = TBK1 (human) (UniProt Q9UHD2)
YES1 (human) = YES1 (human) (UniProt P07947)
CLK2 (human) = CLK2 (human) (UniProt P49760); conditions: compound 10.0 µM

Sequence of TBK1 (human) (Q9UHD2 whole entry, looked up): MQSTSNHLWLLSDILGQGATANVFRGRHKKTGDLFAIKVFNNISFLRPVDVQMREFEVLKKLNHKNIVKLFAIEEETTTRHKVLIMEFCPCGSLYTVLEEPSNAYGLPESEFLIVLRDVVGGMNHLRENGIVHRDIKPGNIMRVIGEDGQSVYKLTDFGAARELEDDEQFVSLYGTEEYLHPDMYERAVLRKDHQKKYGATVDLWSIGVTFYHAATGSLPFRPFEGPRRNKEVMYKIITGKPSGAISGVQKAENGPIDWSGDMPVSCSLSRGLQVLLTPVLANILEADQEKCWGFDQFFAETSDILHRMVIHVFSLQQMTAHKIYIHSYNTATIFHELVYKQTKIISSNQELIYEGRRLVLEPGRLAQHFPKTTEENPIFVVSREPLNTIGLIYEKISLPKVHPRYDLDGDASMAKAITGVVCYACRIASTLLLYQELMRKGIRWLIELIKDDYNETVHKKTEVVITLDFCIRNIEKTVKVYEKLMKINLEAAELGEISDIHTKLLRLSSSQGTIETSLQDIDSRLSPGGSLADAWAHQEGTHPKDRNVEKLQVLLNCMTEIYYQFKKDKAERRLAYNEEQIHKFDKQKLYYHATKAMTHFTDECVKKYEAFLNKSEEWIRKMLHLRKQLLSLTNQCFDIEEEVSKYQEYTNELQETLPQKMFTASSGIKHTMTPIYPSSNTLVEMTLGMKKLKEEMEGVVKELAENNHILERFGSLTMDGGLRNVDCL
Sequence of DAPK1 (human) (P53355 whole entry, looked up): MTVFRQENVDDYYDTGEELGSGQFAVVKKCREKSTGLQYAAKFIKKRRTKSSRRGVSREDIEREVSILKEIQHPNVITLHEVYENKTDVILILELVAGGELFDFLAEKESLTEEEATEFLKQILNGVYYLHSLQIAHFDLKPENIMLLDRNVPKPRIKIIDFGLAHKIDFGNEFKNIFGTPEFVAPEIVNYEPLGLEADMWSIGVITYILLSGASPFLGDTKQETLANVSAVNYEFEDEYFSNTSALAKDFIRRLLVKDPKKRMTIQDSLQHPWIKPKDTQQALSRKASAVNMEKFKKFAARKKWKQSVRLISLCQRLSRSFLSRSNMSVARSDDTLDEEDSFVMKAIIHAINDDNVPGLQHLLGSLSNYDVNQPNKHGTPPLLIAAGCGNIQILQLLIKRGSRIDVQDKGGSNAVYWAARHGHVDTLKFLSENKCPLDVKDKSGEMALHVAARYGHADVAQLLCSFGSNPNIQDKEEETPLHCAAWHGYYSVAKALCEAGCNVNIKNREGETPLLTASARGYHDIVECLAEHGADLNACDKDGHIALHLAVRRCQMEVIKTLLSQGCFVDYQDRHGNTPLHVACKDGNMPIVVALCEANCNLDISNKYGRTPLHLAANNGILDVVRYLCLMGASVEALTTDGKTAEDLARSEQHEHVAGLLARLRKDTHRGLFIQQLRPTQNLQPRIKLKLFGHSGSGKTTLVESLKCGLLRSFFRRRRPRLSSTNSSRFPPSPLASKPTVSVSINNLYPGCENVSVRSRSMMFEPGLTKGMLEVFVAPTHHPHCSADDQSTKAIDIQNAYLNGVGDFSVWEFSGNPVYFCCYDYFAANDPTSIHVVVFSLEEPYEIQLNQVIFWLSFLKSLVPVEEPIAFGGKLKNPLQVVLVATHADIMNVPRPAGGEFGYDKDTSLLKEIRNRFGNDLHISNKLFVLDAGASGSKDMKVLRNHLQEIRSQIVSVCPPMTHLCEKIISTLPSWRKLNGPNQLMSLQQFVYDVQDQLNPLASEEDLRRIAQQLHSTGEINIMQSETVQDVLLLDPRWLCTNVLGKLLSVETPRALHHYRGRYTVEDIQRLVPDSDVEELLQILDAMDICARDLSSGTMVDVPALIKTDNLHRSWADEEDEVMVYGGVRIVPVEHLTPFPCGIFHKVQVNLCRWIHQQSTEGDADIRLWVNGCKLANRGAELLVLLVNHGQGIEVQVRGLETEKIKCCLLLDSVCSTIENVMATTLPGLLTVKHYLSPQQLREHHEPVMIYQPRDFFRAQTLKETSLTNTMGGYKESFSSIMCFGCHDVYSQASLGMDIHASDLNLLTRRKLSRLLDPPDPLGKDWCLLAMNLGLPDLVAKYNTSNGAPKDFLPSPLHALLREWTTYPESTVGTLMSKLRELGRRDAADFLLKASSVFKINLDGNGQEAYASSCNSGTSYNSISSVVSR
Sequence of MINK1 (human) (Q8N4C8 whole entry, looked up): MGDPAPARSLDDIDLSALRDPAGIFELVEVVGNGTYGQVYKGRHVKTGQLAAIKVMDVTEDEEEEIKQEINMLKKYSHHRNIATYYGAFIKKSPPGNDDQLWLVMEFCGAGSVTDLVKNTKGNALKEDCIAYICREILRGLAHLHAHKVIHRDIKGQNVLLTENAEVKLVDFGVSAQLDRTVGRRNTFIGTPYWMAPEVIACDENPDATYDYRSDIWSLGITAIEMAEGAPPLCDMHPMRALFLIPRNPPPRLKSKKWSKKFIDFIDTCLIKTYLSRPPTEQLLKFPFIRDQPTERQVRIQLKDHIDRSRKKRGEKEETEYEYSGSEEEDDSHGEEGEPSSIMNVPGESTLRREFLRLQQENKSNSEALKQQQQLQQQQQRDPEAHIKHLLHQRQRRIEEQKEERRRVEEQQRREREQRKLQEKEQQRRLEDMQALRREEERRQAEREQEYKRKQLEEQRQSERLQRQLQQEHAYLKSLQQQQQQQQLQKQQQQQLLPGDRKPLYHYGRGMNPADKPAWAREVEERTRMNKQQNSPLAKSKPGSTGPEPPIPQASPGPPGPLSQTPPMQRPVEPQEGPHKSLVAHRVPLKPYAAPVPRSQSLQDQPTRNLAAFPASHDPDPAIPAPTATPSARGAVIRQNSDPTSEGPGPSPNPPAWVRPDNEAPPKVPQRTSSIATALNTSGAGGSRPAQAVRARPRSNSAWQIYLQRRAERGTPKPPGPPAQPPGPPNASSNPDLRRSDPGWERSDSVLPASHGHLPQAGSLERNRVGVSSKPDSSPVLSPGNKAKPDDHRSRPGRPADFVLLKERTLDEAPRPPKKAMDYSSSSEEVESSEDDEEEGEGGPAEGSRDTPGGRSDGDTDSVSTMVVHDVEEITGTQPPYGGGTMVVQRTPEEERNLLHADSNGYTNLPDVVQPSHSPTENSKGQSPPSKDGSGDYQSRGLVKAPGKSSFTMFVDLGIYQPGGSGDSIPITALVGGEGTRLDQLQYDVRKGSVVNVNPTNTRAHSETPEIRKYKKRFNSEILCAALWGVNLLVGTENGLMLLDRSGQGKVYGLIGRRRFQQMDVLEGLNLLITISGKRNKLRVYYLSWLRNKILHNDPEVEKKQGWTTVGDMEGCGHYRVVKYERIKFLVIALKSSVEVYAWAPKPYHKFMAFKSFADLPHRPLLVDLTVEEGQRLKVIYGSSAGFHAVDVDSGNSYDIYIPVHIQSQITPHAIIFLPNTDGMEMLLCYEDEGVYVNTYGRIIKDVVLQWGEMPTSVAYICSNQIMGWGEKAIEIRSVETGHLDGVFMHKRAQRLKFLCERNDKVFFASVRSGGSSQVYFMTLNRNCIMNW
Sequence of JAK2 JH1 JH2 (human) (O60674 whole entry, looked up): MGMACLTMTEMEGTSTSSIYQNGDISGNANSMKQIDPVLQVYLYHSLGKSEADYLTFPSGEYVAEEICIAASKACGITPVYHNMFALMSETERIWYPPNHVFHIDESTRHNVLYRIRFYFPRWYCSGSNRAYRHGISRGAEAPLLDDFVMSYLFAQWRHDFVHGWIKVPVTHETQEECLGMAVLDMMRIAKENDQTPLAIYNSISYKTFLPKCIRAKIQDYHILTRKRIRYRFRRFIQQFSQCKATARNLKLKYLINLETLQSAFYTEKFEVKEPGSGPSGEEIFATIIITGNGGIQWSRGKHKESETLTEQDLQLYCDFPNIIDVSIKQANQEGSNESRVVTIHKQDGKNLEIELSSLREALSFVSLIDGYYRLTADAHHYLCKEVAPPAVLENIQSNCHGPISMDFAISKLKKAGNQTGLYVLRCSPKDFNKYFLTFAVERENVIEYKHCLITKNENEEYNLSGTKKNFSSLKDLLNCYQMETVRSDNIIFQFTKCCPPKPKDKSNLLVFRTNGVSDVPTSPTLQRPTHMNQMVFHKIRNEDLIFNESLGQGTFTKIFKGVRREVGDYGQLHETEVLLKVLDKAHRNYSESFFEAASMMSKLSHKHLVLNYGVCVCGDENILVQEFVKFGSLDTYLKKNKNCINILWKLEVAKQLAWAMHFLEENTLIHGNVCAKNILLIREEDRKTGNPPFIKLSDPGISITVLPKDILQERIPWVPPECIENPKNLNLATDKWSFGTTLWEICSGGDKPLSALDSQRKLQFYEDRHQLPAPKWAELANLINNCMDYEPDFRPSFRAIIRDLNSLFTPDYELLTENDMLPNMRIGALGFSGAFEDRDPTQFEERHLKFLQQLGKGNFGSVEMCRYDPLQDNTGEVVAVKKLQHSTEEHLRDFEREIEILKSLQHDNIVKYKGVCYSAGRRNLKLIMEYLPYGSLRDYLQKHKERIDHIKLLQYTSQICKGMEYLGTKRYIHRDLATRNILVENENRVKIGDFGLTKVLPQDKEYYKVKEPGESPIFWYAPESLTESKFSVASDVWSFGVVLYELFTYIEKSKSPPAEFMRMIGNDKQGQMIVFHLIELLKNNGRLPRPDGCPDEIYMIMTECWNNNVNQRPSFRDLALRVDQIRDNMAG
Sequence of MAPKAPK5 (human) (Q8IW41 whole entry, looked up): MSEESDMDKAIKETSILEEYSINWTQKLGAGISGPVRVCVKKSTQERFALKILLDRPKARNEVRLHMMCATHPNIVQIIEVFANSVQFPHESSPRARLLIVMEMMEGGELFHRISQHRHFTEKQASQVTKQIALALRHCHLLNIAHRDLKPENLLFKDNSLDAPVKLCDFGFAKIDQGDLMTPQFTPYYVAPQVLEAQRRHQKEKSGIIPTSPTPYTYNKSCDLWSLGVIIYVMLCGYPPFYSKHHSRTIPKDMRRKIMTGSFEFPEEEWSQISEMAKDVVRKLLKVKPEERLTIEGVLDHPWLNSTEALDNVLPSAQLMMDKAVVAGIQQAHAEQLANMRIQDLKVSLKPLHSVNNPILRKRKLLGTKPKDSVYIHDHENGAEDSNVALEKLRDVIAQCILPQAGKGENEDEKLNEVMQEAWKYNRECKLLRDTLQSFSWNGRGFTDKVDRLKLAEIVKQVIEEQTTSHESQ

C=CC(=O)N1CCC[C@@H](n2nc(-c3ccc(Oc4ccccc4)cc3)c3c(N)ncnc32)C1
residual activity (AURKB (human); compound 0.1 µM): 96%
residual activity (AURKB (human); compound 1.0 µM): 61%
residual activity (AURKB (human); compound 10.0 µM): 13%
residual activity (BRSK2 (human); compound 0.1 µM): 100%
residual activity (BRSK2 (human); compound 1.0 µM): 91%
residual activity (BRSK2 (human); compound 10.0 µM): 61%
residual activity (CAMKK2 (human); compound 0.1 µM): 86%
residual activity (CAMKK2 (human); compound 1.0 µM): 109%
residual activity (CAMKK2 (human); compound 10.0 µM): 80%
residual activity (CHEK1 (human); compound 0.1 µM): 76%
residual activity (CHEK1 (human); compound 1.0 µM): 93%
residual activity (CHEK1 (human); compound 10.0 µM): 77%
residual activity (CSNK2A1 (human); compound 0.1 µM): 104%
residual activity (CSNK2A1 (human); compound 1.0 µM): 115%
residual activity (CSNK2A1 (human); compound 10.0 µM): 111%
residual activity (CaMK1 (human); compound 0.1 µM): 80%
residual activity (CaMK1 (human); compound 1.0 µM): 99%
residual activity (CaMK1 (human); compound 10.0 µM): 33%
residual activity (DAPK1 (human); compound 0.1 µM): 95%
residual activity (DAPK1 (human); compound 1.0 µM): 95%
residual activity (DAPK1 (human); compound 10.0 µM): 84%
residual activity (DYRK1A (human); compound 0.1 µM): 112%
residual activity (DYRK1A (human); compound 1.0 µM): 105%
residual activity (DYRK1A (human); compound 10.0 µM): 87%
residual activity (DYRK3 (human); compound 0.1 µM): 93%
residual activity (DYRK3 (human); compound 1.0 µM): 86%
residual activity (DYRK3 (human); compound 10.0 µM): 68%
residual activity (EPHB2 (human); compound 0.1 µM): 102%
residual activity (EPHB2 (human); compound 1.0 µM): 65%
residual activity (EPHB2 (human); compound 10.0 µM): 11%
residual activity (FGFR1 (human); compound 0.1 µM): 52%
residual activity (FGFR1 (human); compound 1.0 µM): 24%
residual activity (FGFR1 (human); compound 10.0 µM): 15%
residual activity (GCK (human); compound 0.1 µM): 98%
residual activity (GCK (human); compound 1.0 µM): 77%
residual activity (GCK (human); compound 10.0 µM): 38%
residual activity (HIPK1 (human); compound 0.1 µM): 75%
residual activity (HIPK1 (human); compound 1.0 µM): 87%
residual activity (HIPK1 (human); compound 10.0 µM): 75%
residual activity (HIPK2 (human)): 66%
residual activity (IGF1R (human); compound 0.1 µM): 95%
residual activity (IGF1R (human); compound 1.0 µM): 93%
residual activity (IGF1R (human); compound 10.0 µM): 63%
residual activity (JAK2 JH1 JH2 (human); compound 0.1 µM): 90%
residual activity (JAK2 JH1 JH2 (human); compound 1.0 µM): 103%
residual activity (JAK2 JH1 JH2 (human); compound 10.0 µM): 83%
residual activity (LCK (mouse); compound 0.1 µM): 22%
residual activity (LCK (mouse); compound 10.0 µM): 9%
residual activity (MAPK10 (human); compound 0.1 µM): 84%
residual activity (MAPK10 (human); compound 1.0 µM): 96%
residual activity (MAPK10 (human); compound 10.0 µM): 86%
residual activity (MAPK11 (human); compound 1.0 µM): 103%
residual activity (MAPK11 (human); compound 10.0 µM): 68%
residual activity (MAPK13 (human); compound 0.1 µM): 88%
residual activity (MAPK13 (human); compound 1.0 µM): 104%
residual activity (MAPK13 (human); compound 10.0 µM): 80%
residual activity (MAPK8 (human); compound 0.1 µM): 98%
residual activity (MAPK8 (human); compound 1.0 µM): 98%
residual activity (MAPK8 (human); compound 10.0 µM): 75%
residual activity (MAPKAPK5 (human); compound 0.1 µM): 101%
residual activity (MAPKAPK5 (human); compound 1.0 µM): 107%
residual activity (MAPKAPK5 (human); compound 10.0 µM): 83%
residual activity (MARK3 (human); compound 0.1 µM): 98%
residual activity (MARK3 (human); compound 1.0 µM): 94%
residual activity (MARK3 (human); compound 10.0 µM): 76%
residual activity (MINK1 (human); compound 0.1 µM): 90%
residual activity (MINK1 (human); compound 1.0 µM): 91%
residual activity (MINK1 (human); compound 10.0 µM): 57%
residual activity (MKNK1 (human); compound 0.1 µM): 91%
residual activity (MKNK1 (human); compound 1.0 µM): 115%
residual activity (MKNK1 (human); compound 10.0 µM): 84%
residual activity ([1]; compound 0.1 µM): 87%
residual activity ([1]; compound 1.0 µM): 72%
residual activity ([1]; compound 10.0 µM): 55%
residual activity (PHKG1 (human); compound 1.0 µM): 104%
residual activity (PHKG1 (human); compound 10.0 µM): 92%
residual activity (PIM3 (human); compound 0.1 µM): 94%
residual activity (PIM3 (human); compound 1.0 µM): 96%
residual activity (PIM3 (human); compound 10.0 µM): 88%
residual activity (ROCK2 (rat); compound 0.1 µM): 93%
residual activity (ROCK2 (rat); compound 1.0 µM): 111%
residual activity (ROCK2 (rat); compound 10.0 µM): 69%
residual activity ([2]; compound 0.1 µM): 95%
residual activity ([2]; compound 1.0 µM): 107%
residual activity ([2]; compound 10.0 µM): 84%
residual activity (SRPK1 (human); compound 0.1 µM): 100%
residual activity (SRPK1 (human); compound 1.0 µM): 115%
residual activity (SRPK1 (human); compound 10.0 µM): 99%
residual activity (STK3 (human); compound 0.1 µM): 88%
residual activity (STK3 (human); compound 1.0 µM): 65%
residual activity (STK3 (human); compound 10.0 µM): 41%
residual activity (TAOK1 (human); compound 0.1 µM): 113%
residual activity (TAOK1 (human); compound 1.0 µM): 119%
residual activity (TBK1 (human); compound 0.1 µM): 102%
residual activity (TBK1 (human); compound 1.0 µM): 113%
residual activity (TBK1 (human); compound 10.0 µM): 90%
residual activity (YES1 (human); compound 0.1 µM): 20%
residual activity (YES1 (human); compound 1.0 µM): 16%
residual activity (YES1 (human); compound 10.0 µM): 13%

O=S(=O)(c1ccc(F)c2nonc12)N1CCN(c2ncc(C(F)(F)F)cc2Cl)CC1
residual activity (AURKB (human); compound 10.0 µM): 96%
residual activity (BRSK2 (human); compound 10.0 µM): 108%
residual activity (CAMKK2 (human); compound 10.0 µM): 83%
residual activity (CHEK1 (human); compound 10.0 µM): 96%
residual activity (CLK2 (human)): 95%
residual activity (CSNK2A1 (human); compound 10.0 µM): 79%
residual activity (CaMK1 (human); compound 10.0 µM): 92%
residual activity (DYRK1A (human); compound 10.0 µM): 72%
residual activity (DYRK3 (human); compound 10.0 µM): 91%
residual activity (EPHB2 (human); compound 10.0 µM): 102%
residual activity (FGFR1 (human); compound 10.0 µM): 106%
residual activity (GCK (human); compound 10.0 µM): 80%
residual activity (HIPK1 (human); compound 10.0 µM): 94%
residual activity (HIPK2 (human)): 97%
residual activity (IGF1R (human); compound 10.0 µM): 93%
residual activity (JAK2 JH1 JH2 (human); compound 10.0 µM): 97%
residual activity (LCK (mouse); compound 10.0 µM): 93%
residual activity (MAPK10 (human); compound 10.0 µM): 93%
residual activity (MAPK11 (human); compound 10.0 µM): 101%
residual activity (MAPK13 (human); compound 10.0 µM): 85%
residual activity (MAPK8 (human); compound 10.0 µM): 88%
residual activity (MAPKAPK5 (human); compound 10.0 µM): 85%
residual activity (MARK3 (human); compound 10.0 µM): 106%
residual activity (MINK1 (human); compound 10.0 µM): 89%
residual activity (MKNK1 (human); compound 10.0 µM): 70%
residual activity ([1]; compound 10.0 µM): 98%
residual activity (PHKG1 (human); compound 10.0 µM): 90%
residual activity (PIM3 (human); compound 10.0 µM): 116%
residual activity (ROCK2 (rat); compound 10.0 µM): 95%
residual activity ([2]; compound 10.0 µM): 70%
residual activity (SRPK1 (human); compound 10.0 µM): 82%
residual activity (STK3 (human); compound 10.0 µM): 82%
residual activity (TAOK1 (human); compound 10.0 µM): 98%
residual activity (TBK1 (human); compound 10.0 µM): 85%
residual activity (YES1 (human); compound 10.0 µM): 105%
